36 molecules from patent US20260034094A1, “COMPOSITIONS AND METHODS FOR INDUCING FERROPTOSIS” (Kojin Therapeutics, Inc., priority 2022, published 2026) can be followed below.

Assay [1] addresses human recombinant GCL (Homo sapiens (Human), UniProt P48506). The assay can be described thus: GCL enzyme profiling assay (ADP-Glo luminescence). The format is biochemical. The note with it: for pIC50: read-out: GCL IC50. Put shortly:
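IC50 fitted by four-parameter logistic to luminescent ADP formation (ADP-Glo). Reaction at room temperature in HEPES pH 7.5 with 30 mM MgCl2, 0.2% F-127, 1% DMSO; 5 nM GCL and 0.6 mM ATP preincubated 1 h before adding 1 mM glutamate plus 1.2 mM α-aminobutyrate for 2 h.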
A general note: ADP-Glo turns the ADP formed in a reaction into a luminescent signal.

In assay [2] the test system is RKN cells. The assay can be described thus: RKN cell profiling assay (cell viability, CellTiter-Glo). The format is cell-based. The note with it: read-out: Cell Killing EC50. Put shortly: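 Viability read by CellTiter-Glo luminescence after 96 h compound exposure (0.5% DMSO final) of cells plated at 1,000/well in 10% FBS F-12 and allowed 24 h attachment. Four-parameter fits gave EC50; rescue arms used ferrostatin-1, 1.5 μM, present from seeding.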

Where [3] appears, read: human recombinant GCL 5 nM, 1 h preincubation with ATP.

pEC50, pIC50: −log10 of the molar value. Where “and” joins values, the source holds several entries; their conditions need not be identical. Equal values may be shown once. Read-outs that look alike come from different tables or passages of the source.

Sequence of human recombinant GCL (P48506 whole entry): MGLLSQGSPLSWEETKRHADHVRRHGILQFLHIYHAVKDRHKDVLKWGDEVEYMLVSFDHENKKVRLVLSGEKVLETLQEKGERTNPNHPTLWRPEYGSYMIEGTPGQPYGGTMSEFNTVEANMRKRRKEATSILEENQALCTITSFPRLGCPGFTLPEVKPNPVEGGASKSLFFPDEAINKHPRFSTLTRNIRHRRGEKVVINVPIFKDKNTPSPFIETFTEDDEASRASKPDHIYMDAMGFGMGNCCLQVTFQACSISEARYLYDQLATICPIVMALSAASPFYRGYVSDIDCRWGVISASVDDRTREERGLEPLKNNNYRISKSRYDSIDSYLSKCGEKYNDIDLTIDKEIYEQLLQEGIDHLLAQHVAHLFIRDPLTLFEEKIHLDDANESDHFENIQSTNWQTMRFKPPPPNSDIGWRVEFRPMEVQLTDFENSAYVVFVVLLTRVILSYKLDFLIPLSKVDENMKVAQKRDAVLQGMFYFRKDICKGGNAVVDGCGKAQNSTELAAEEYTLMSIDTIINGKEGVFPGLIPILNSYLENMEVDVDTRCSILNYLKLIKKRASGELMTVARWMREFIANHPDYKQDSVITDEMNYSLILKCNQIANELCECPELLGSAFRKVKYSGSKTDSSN

As to `N=S(=O)(CC[C@H](N)C(=O)O)CCC(O)(c1ccc(-c2ccccc2)cn1)C(F)(F)F` (stereo partly drawn) [Compound 459, (2S)-2-amino-4-(4,4,4-trifluoro-3-hydroxy-3-(5-phenylpyridin-2-yl)butylsulfonimidoyl)butanoic acid], the pIC50 in assay [1] (human recombinant GCL, ADP-Glo) is not below 4.70. Moreover, the pEC50 in assay [2] (cell viability) was more than 3.00.

On to `CCCCOC(=O)[C@@H](N)CCS(=N)(=O)CCc1ccccc1Cl` (stereo partly shown) [Compound 91], for which the pIC50 in assay [1] (setting [3]) was 2.70 to 4.70. Moreover, the pEC50 in assay [2] (96 h, 96 h exposure) was more than 3.00.

Take `Cc1ccc(CCS(=N)(=O)CC[C@H](N)C(=O)O)c(F)c1` (stereo partly shown) [Compound 37]: the pIC50 in assay [1] (setting [3]) is not below 4.70. The pEC50 in assay [2] (96 h, 96 h exposure) is not above 3.00.

For the molecule `N=S(=O)(CC[C@H](N)C(=O)O)CCC1(C(F)(F)F)CCC1` (stereo partly shown) [Compound 296], the pIC50 in assay [1] (human recombinant GCL, ADP-Glo) is not below 4.70. Besides, the pEC50 in assay [2] (cell viability) was more than 3.00.

Take `CCc1ccccc1CCS(=N)(=O)CC[C@H](N)C(=O)O` (stereo partly shown) [Compound 33]: in assay [1] (setting [3]), the pIC50 was not below 4.70. In addition, in assay [2] (96 h, 96 h exposure), the pEC50 is not above 3.00.

As for `N=S(=O)(CCCC(F)(F)F)CC[C@H](N)C(=O)O` (stereo partly drawn) [Compound 150, (2S)-2-amino-4-(4,4,4-trifluorobutylsulfonimidoyl)butanoic acid], in assay [1] (setting [3]), the pIC50 is not below 4.70. Further, the pEC50 in assay [2] (96 h, 96 h exposure) was more than 3.00.

Consider `N=S(=O)(CCC(c1ccc(-c2cncc(F)c2)cc1)C(F)(F)F)CC[C@H](N)C(=O)O` (stereo partly shown) [Compound 247], for which, in assay [1] (human recombinant GCL, ADP-Glo), the pIC50 was not below 4.70. Also, the pEC50 in assay [2] (cell viability) was not above 3.00.

In the case of `N=S(=O)(CCc1cccc(OC(F)(F)F)c1)CC[C@H](N)C(=O)O` (stereo partly shown) [Compound 4], the pIC50 in assay [1] (setting [3]) is 2.70 to 4.70. In assay [2] (96 h, 96 h exposure), the pEC50 was not above 3.00.

As for `N=S(=O)(CC[C@H](N)C(=O)O)CCC(O)(C1CC1)C(F)(F)F` (stereo partly drawn) [Compound 349, (2S)-2-amino-4-(3-cyclopropyl-4,4,4-trifluoro-3-hydroxybutylsulfonimidoyl)butanoic acid], in assay [1] (human recombinant GCL, ADP-Glo), the pIC50 was 2.70 to 4.70. For the same molecule, the pEC50 in assay [2] (cell viability) is more than 3.00.

Take `N=S(=O)(CCC(C(F)(F)F)C12CC(C1)C2)CC[C@H](N)C(=O)O` (stereo partly shown) [Compound 384]: in assay [1] (human recombinant GCL, ADP-Glo), the pIC50 is not below 4.70. Further, the pEC50 in assay [2] (cell viability) was not above 3.00.

In the case of `CC(C)(CCS(=N)(=O)CC[C@H](N)C(=O)O)c1ccc(F)cc1` (stereo partly shown) [Compound 58], the pIC50 in assay [1] (setting [3]) is 2.70 to 4.70. In addition, in assay [2] (96 h, 96 h exposure), the pEC50 is not above 3.00.

Take `N=S(=O)(CCC(n1nc2ccccc2n1)C(F)(F)F)CC[C@H](N)C(=O)O` (stereo partly shown) [Compound 410]: in assay [1] (human recombinant GCL, ADP-Glo), the pIC50 is not below 4.70. The pEC50 in assay [2] (cell viability) was not above 3.00.

As for `N=[S@@](=O)(CC[C@H](N)C(=O)O)CCC1(c2ccccn2)CCC1` [compound 388], the pIC50 in assay [1] (human recombinant GCL, ADP-Glo) is 2.70 to 4.70. Besides, in assay [2] (cell viability), the pEC50 was more than 3.00.

In the case of `N=S(=O)(CCCC1CC1)CC[C@H](N)C(=O)O` (stereo partly drawn) [Compound 134, (2S)-2-amino-4-(3-cyclopropylpropylsulfonimidoyl)butanoic acid], in assay [1] (setting [3]), the pIC50 was 2.70 to 4.70. For the same molecule, the negative-log EC50 (pEC50) in assay [2] (96 h, 96 h exposure) is not above 3.00.

On to `CC(C)(C)CCS(=N)(=O)CC[C@H](N)C(=O)NC1COC1` (stereo partly shown) [Compound 129], for which the pIC50 in assay [1] (setting [3]) is less than 2.70. Besides, the pEC50 in assay [2] (96 h, 96 h exposure) was more than 3.00.

Take `N=S(=O)(CC[C@H](N)C(=O)O)CCC(O)(c1ccc(OC(F)(F)F)cc1)C(F)(F)F` (stereo partly drawn) [Compound 330, (2S)-2-amino-4-(4,4,4-trifluoro-3-hydroxy-3-(4-(trifluoromethoxy)phenyl)butylsulfonimidoyl)butanoic acid]: the pIC50 in assay [1] (human recombinant GCL, ADP-Glo) is not below 4.70. Further, the pEC50 in assay [2] (cell viability) is not above 3.00.

Regarding `N=S(=O)(CC[C@H](N)C(=O)O)CCC(O)(CC(F)(F)F)c1ccc(-c2ccc(Cl)cc2Cl)cc1` (stereo partly drawn) [Compound 494, (2S)-2-amino-4-(3-(2′, 4′-dichloro-[1, 1′-biphenyl]-4-yl)-5,5,5-trifluoro-3-hydroxypentylsulfonimidoyl) butanoic acid], in assay [1] (human recombinant GCL, ADP-Glo), the pIC50 was not below 4.70. In addition, the pEC50 in assay [2] (cell viability) is not above 3.00.

In the case of `Cc1cccc(C)c1CCS(=N)(=O)CC[C@H](N)C(=O)O` (stereo partly shown) [Compound 32], the pIC50 in assay [1] (setting [3]) was 2.70 to 4.70. For the same molecule, the negative-log EC50 (pEC50) in assay [2] (96 h, 96 h exposure) is not above 3.00.

For the molecule `CC(CCS(=N)(=O)CC[C@H](N)C(=O)O)(c1ccccc1)C(F)(F)F` (stereo partly shown) [Compound 293], in assay [1] (human recombinant GCL, ADP-Glo), the negative-log IC50 (pIC50) was not below 4.70. For the same molecule, in assay [2] (cell viability), the pEC50 is not above 3.00.

With `N=S(=O)(CC[C@H](N)C(=O)O)CCC(O)(c1nc2ccccc2o1)C(F)(F)F` (stereo partly shown) [compound 502], in assay [1] (human recombinant GCL, ADP-Glo), the pIC50 was not below 4.70. Also, in assay [2] (cell viability), the pEC50 was more than 3.00.

For `CCCCS(=N)(=O)CC[C@H](N)C(=O)OCc1oc(=O)oc1C` (stereo partly drawn) [Compound 73, (2S)-(5-methyl-2-oxo-1,3-dioxol-4-yl)methyl 2-amino-4-(butylsulfonimidoyl) butanoate], the pIC50 in assay [1] (setting [3]) was < 2.70 and 2.70 to 4.70. The negative-log EC50 (pEC50) in assay [2] (96 h, 96 h exposure) is not above 3.00.

As to `N=S(=O)(CC[C@H](N)C(=O)O)CCC1(n2ncc(-c3ccccc3)n2)CCC1` (stereo partly shown) [Compound 420], in assay [1] (human recombinant GCL, ADP-Glo), the negative logarithm of the IC50 (pIC50) was not below 4.70. Further, the pEC50 in assay [2] (cell viability) is not above 3.00.

Take `N=[S@](=O)(CCCC(F)(F)F)CC[C@H](N)C(=O)O` [Compound 139, (S)-2-amino-4-((S)-4,4,4-trifluorobutylsulfonimidoyl)butanoic acid]: the pIC50 in assay [1] (setting [3]) is not below 4.70. Further, the pEC50 in assay [2] (96 h, 96 h exposure) was more than 3.00.

`Cc1ccc(-c2ccc(C(O)(CCS(=N)(=O)CC[C@H](N)C(=O)O)C(F)(F)F)cc2)c(C)c1` (stereo partly shown) [Compound 438]: in assay [1] (human recombinant GCL, ADP-Glo), the negative-log IC50 (pIC50) is not below 4.70. Further, the pEC50 in assay [2] (cell viability) was more than 3.00.

`COc1ccc(CCS(=N)(=O)CC[C@H](N)C(=O)O)cc1` (stereo partly shown) [Compound 12]: the negative logarithm of the IC50 (pIC50) in assay [1] (setting [3]) was 2.70 to 4.70. Moreover, the pEC50 in assay [2] (96 h, 96 h exposure) was not above 3.00.

Turning to `COCCCS(=N)(=O)CC[C@H](N)C(=O)OC` (stereo partly shown) [Compound 75], the negative logarithm of the IC50 (pIC50) in assay [1] (setting [3]) is < 2.70 and 2.70 to 4.70. Besides, the IC50 in assay [1] (human recombinant GCL 5 nM, 1 h preincubation with ATP, read-out: GCL IC50 (mM), individual values in parentheses) is 2.35 mM and 0.594 mM. Also, the pEC50 in assay [2] (96 h, 96 h exposure) was not above 3.00.

For the molecule `CC(C)(CO)CCS(=N)(=O)CC[C@H](N)C(=O)O` (stereo partly shown) [Compound 184], the pIC50 in assay [1] (setting [3]) was 2.70 to 4.70. Further, the pEC50 in assay [2] (96 h, 96 h exposure) was more than 3.00.

In the case of `Cc1noc(C)c1-c1ccc(C(O)(CCS(=N)(=O)CC[C@H](N)C(=O)O)C(F)(F)F)cc1` (stereo partly shown) [Compound 448], the negative-log IC50 (pIC50) in assay [1] (human recombinant GCL, ADP-Glo) was not below 4.70. Further, the pEC50 in assay [2] (cell viability) is not above 3.00.

As for `CCOC(=O)C1(CCS(=N)(=O)CC[C@H](N)C(=O)O)CCC1` (stereo partly shown) [Compound 189], in assay [1] (setting [3]), the pIC50 is 2.70 to 4.70. Moreover, the pEC50 in assay [2] (96 h, 96 h exposure) is more than 3.00.

Regarding `N[C@@H](CCS(=O)(=O)CCC1(c2ccccn2)CCC1)C(=O)O` [compound 390], the pIC50 in assay [1] (human recombinant GCL, ADP-Glo) was less than 2.70. Besides, the pEC50 in assay [2] (cell viability) is not above 3.00.

Take `CC(C)(C)CCS(=N)(=O)CC[C@H](N)C(=O)NC1CCOCC1` (stereo partly shown) [Compound 120]: in assay [1] (setting [3]), the pIC50 was less than 2.70. Besides, the pEC50 in assay [2] (96 h, 96 h exposure) is more than 3.00.

Consider `N=S(=O)(CC[C@H](N)C(=O)O)CCC1(O)CCC1` (stereo partly shown) [Compound 153], for which, in assay [1] (setting [3]), the pIC50 is 2.70 to 4.70. Besides, the pEC50 in assay [2] (96 h, 96 h exposure) is more than 3.00.

Turning to `Cc1cc(F)ccc1-c1ccc(C(O)(CCS(=N)(=O)CC[C@H](N)C(=O)O)C(F)(F)F)nc1` (stereo partly shown) [Compound 479], the pIC50 in assay [1] (human recombinant GCL, ADP-Glo) is not below 4.70. For the same molecule, in assay [2] (cell viability), the pEC50 was more than 3.00.

As for `N=S(=O)(CCCC(F)(F)F)CC[C@H](N)c1ncno1` (stereo partly drawn) [Compound 204, (1S)-1-(1,2,4-oxadiazol-5-yl)-3-(4,4,4-trifluorobutylsulfonimidoyl)propan-1-amine], in assay [1] (setting [3]), the pIC50 was less than 2.70. The pEC50 in assay [2] (96 h, 96 h exposure) was not above 3.00.

As for `N#Cc1cccc(-c2ccc(C(CCS(=N)(=O)CC[C@H](N)C(=O)O)C(F)(F)F)cc2)c1F` (stereo partly shown) [Compound 240], the pIC50 in assay [1] (human recombinant GCL, ADP-Glo) is not below 4.70. Also, in assay [2] (cell viability), the negative-log EC50 (pEC50) is not above 3.00.

In the case of `COc1ccc(-c2ccc(C3(CCS(=N)(=O)CC[C@H](N)C(=O)O)CCC3)cc2)c(Cl)c1` (stereo partly shown) [Compound 400], the pIC50 in assay [1] (human recombinant GCL, ADP-Glo) was not below 4.70. Further, the pEC50 in assay [2] (cell viability) was more than 3.00.

Usually pIC50 stands for −log10 of the IC50, conventionally taken in molar units. One may read the pEC50 as the EC50 on a negative log10 scale, so that one unit is a factor of ten. The term IC50 denotes the concentration that inhibits the measured activity by half.
